From ChEMBL document CHEMBL5385876, “Discovery of unglycosylated indolocarbazoles as ROCK2 isoform-selective inhibitors for the treatment of breast cancer metastasis” (Eur J Med Chem, 2023)

Biological target: Rho-associated protein kinase 2 (Homo sapiens, UniProt O75116)
Test: Inhibition of N-terminal His10-StrepII tagged human ROCK2 catalytic domain (1 to 553 residues) expressed in Sf9 insect cells by HTRF assay

Sequence of Rho-associated protein kinase 2 (O75116 whole entry, the tested form may be a part): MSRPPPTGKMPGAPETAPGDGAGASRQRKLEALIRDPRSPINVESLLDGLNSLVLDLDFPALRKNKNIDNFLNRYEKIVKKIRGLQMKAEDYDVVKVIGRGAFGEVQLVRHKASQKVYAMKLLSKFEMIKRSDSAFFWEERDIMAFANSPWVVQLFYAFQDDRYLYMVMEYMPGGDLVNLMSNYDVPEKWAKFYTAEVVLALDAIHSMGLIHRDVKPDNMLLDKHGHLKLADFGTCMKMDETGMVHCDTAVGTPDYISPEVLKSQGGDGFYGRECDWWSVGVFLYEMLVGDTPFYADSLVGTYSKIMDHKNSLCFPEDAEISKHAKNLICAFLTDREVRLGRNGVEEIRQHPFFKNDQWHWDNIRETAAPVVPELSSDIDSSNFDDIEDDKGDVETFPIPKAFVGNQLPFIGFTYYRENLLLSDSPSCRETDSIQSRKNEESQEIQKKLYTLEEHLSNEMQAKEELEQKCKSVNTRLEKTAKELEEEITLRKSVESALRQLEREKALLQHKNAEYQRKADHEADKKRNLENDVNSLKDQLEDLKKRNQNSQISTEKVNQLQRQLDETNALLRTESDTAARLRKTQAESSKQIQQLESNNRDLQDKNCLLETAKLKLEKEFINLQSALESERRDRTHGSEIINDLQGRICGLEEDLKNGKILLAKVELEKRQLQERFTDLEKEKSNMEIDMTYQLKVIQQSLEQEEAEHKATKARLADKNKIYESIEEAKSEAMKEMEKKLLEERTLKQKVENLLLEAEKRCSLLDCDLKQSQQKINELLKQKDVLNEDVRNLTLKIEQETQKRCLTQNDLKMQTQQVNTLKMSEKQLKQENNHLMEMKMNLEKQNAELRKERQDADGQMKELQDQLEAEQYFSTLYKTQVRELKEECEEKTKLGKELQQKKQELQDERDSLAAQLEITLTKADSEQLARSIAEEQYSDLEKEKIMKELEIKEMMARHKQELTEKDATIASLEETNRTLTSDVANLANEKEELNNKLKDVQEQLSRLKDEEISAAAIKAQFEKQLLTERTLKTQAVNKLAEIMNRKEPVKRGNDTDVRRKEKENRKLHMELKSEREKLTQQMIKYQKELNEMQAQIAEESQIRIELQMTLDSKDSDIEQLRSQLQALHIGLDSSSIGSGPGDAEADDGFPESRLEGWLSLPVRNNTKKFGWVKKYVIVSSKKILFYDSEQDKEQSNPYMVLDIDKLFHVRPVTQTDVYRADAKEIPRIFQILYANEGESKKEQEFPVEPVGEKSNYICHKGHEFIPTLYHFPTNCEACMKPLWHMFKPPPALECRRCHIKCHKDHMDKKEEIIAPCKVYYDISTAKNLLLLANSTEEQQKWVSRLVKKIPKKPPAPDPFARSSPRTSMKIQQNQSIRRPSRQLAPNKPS

Row | IC50 [µM] | Compound
1 | 0.69 | CO[C@@H]1[C@@H](O)[C@@H](O)[C@H]2O[C@]1(C)n1c3ccccc3c3c4c(c5c6ccccc6n2c5c31)C(=O)NC4
2 | 0.14 | C[C@@H]1O[C@@H](n2c3ccccc3c3c4c(c5c6ccccc6[nH]c5c32)CNC4=O)C[C@@H](N)[C@H]1OC(O)C1CO1 (stereo not given in full)
3 | 0.023 | O=C1NCc2c1c1c3ccc(O)cc3[nH]c1c1[nH]c3ccccc3c21
4 | 0.2 | O=C1NCc2c1c1c3ccccc3[nH]c1c1[nH]c3cc(O)ccc3c21
5 | > 0.5 | CO[C@@H]1[C@@H](O)[C@@H](O)[C@H]2O[C@]1(C)n1c3ccccc3c3c4c(c5c6ccccc6n2c5c31)C(=O)N[C@@H]4O
6 | 0.11 | COc1ccc2[nH]c3c4[nH]c5ccc(O)cc5c4c4c(c3c2c1)C(=O)NC4=O
7 | > 0.5 | CO[C@@H]1[C@@H](O)[C@@H](O)[C@H]2O[C@]1(C)n1c3ccccc3c3c4c(c5c6ccccc6n2c5c31)C(=O)N[C@H]4O
8 | > 0.5 | COc1cccc2c1[nH]c1c3[nH]c4ccccc4c3c3c(c21)C(=O)NC3=O
9 | 0.25 | C[C@@H]1O[C@@H](n2c3ccccc3c3c4c(c5c6ccccc6[nH]c5c32)C(=O)NC4=O)C[C@@H](NC=O)[C@H]1O
10 | > 0.5 | COc1ccc2[nH]c3c4[nH]c5ccc(OC)cc5c4c4c(c3c2c1)CNC4=O
11 | 8 | CO[C@@H]1[C@H](O)C[C@H]2O[C@]1(C)n1c3ccccc3c3c4c(c5c6ccccc6n2c5c31)C(=O)NC4
12 | 0.076 | C[C@@H]1O[C@@H](n2c3ccc(O)cc3c3c4c(c5c6ccccc6[nH]c5c32)CNC4=O)[C@H](O)[C@H](O)[C@H]1O
13 | > 0.5 | CO[C@@H]1C(C)(O)O[C@@H]2C[C@@]1(OC)n1c3ccccc3c3c4c(c5c6ccccc6n2c5c31)C(=O)NC4 (stereo not given in full)
14 | > 0.5 | C[C@H]1O[C@@H]2C[C@](O)([C@@H]1O)n1c3ccccc3c3c4c(c5c6ccccc6n2c5c31)C(=O)NC4
15 | 0.46 | COc1ccc2[nH]c3c4[nH]c5ccc(O)cc5c4c4c(c3c2c1)C(=O)NC4
16 | 0.21 | CC(=O)N[C@H]1C[C@H](n2c3ccccc3c3c4c(c5c6ccccc6[nH]c5c32)CNC4=O)O[C@@H](C)[C@@H]1O
17 | 0.55 | Cc1ccc2[nH]c3c4[nH]c5ccccc5c4c4c(c3c2c1)C(=O)NC4
18 | > 0.5 | C[C@@H]1O[C@@H]2C[C@](O)([C@H]1O)n1c3ccccc3c3c4c(c5c6ccccc6n2c5c31)C(=O)NC4

Further lines, the compound ahead of its results:

Row | Compound | IC50 [µM]
19 | CN[C@]1(C(=O)OC)C[C@H]2O[C@]1(C)n1c3ccccc3c3c4c(c5c6ccccc6n2c5c31)C(=O)NC4 | > 0.5
20 | COc1ccc2c(c1)[nH]c1c3[nH]c4ccccc4c3c3c(c21)C(=O)NC3=O | 0.62
21 | CO[C@@H]1[C@H](NC=O)C[C@H]2O[C@]1(C)n1c3ccccc3c3c4c(c5c6ccccc6n2c5c31)C(=O)NC4 | > 0.5
22 | CO[C@@H]1[C@@H](O)[C@@H](O)[C@H]2O[C@]1(C)n1c3ccccc3c3c4c(c5c6ccccc6n2c5c31)C(=O)N[C@H]4OC | > 0.5
23 | COC(=O)[C@]1(O)C[C@H]2O[C@]1(C)n1c3ccccc3c3c4c(c5c6ccccc6n2c5c31)C(=O)NC4 | > 0.5
24 | CN[C@@H]1C[C@H]2O[C@@](C)([C@@H]1OC)n1c3ccccc3c3c4c(c5c6ccccc6n2c5c31)C(=O)NC4=O (stereo in doubt; 14) | 0.31
25 | CO[C@@H]1[C@H](NC(=O)C(=O)c2c[nH]c3ccccc23)C[C@H]2O[C@]1(C)n1c3ccccc3c3c4c(c5c6ccccc6n2c5c31)C(=O)NC4 | 4.78
26 | COC(=O)c1cccc2c1NC1(C[C@H]3O[C@]1(C)n1c4ccccc4c4c5c(c6c7ccccc7n3c6c41)C(=O)NC5)C(=O)O2 (stereo not given in full) | > 0.5
27 | COc1ccc2[nH]c3c4[nH]c5ccc(O)cc5c4c4c(c3c2c1)CNC4=O | 0.12
28 | COC(=O)[C@@]1(O)C[C@H]2O[C@]1(C)n1c3ccccc3c3c4c(c5c6ccccc6n2c5c31)C(=O)NC4 [K-252A] | > 0.5
29 | CC(=O)N[C@@H]1C[C@H](n2c3ccccc3c3c4c(c5c6ccccc6[nH]c5c32)CNC4=O)O[C@@H](C)[C@@H]1O | 2.7
30 | COc1ccc2[nH]c3c4[nH]c5ccccc5c4c4c(c3c2c1)C(=O)NC4=O | 0.1
